Assay results from patent US12661410B2, “Compounds for targeted degradation of RET” (C4 Therapeutics, Inc., priority 2020, dated 2026).
Substitutions are numbered along the chain they refer to. Read-outs that look alike come from different tables or passages of the source.

Experiments:
[1] = target: T1, RET(KD: 658-1114 G810R) (Homo sapiens, UniProt P07949, G810R); assay: HiBiT-Degradation, RET G810R degradation assay (Nano-Glo HiBiT Lytic), 293T.165 cells; assay type: cell-based; settings: for Emax / DC50: 6.0 hours
T1 construct: 658-1114; expressed in transfected cells; host or cells: 293T.165 (293T cells, generated in-house)
T1 sequence (P07949 658-1114 G810R): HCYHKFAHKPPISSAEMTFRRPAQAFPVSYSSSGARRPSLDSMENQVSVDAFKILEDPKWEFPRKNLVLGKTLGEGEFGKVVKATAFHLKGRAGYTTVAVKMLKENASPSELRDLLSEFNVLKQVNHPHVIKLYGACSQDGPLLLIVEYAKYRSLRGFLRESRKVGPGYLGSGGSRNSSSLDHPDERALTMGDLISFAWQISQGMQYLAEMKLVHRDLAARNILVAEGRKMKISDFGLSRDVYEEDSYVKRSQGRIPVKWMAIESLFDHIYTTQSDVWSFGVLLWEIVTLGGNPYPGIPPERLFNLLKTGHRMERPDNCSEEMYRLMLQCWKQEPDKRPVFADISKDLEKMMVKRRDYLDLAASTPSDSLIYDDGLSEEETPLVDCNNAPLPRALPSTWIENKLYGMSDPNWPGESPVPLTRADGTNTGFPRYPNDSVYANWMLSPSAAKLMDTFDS
In short: (§1)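 Degradation after 6 h compound exposure (top 10 μM, 11 half-log points, duplicates) measured by Nano-Glo HiBiT lytic luminescence. Cells: 293T.144 carrying wild-type and 293T.165 carrying G810R HiBiT-RET kinase domain; curves yield DC50 and Emax.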

[2] = target: T2, RET (658-1114) (Homo sapiens, UniProt P07949); assay: HiBiT-Degradation, RET wild-type degradation assay (Nano-Glo HiBiT Lytic), 293T.144 cells; assay type: cell-based; settings: for DC50 / Emax: 6.0 hours
T2 construct: 658-1114; expressed in transfected cells; host or cells: 293T.144 (293T cells, generated in-house)
T2 sequence (P07949 658-1114): T1 sequence (P07949 658-1114 G810R) with R153G
In short: as §1

[3] = % remaining protein, read-out: 293T.165 RET(KD: 658-1114 G810R) 6.0 hours (Emax)
[4] = half-maximal degradation concentration, read-out: 293T.165 RET(KD: 658-1114 G810R) 6.0 hours (DC50)
[5] = HiBiT-Degradation, read-out: 293T.165 RET(KD: 658-1114 G810R) 6.0 hours (DC50)
[6] = HiBiT-Degradation, read-out: 293T.144 RET (658-1114) 6.0 hours (DC50)
[7] = HiBiT-Degradation, read-out: 293T.144 RET (658-1114) 6.0 hours (Emax)
[8] = % remaining protein, read-out: 293T.144 RET (658-1114) 6.0 hours (Emax)
[9] = half-maximal degradation concentration, read-out: 293T.144 RET (658-1114) 6.0 hours (DC50)

Row | Compound | Emax [1, 3] [%] | DC50 [1, 4] [nM] | 293T.165 RET(KD: 658-1114 G810R) 6.0 hours (Emax) ([1]; HiBiT-Degradation) | 293T.165 RET(KD: 658-1114 G810R) 6.0 hours (IP) [nM] ([1]; HiBiT-Degradation) | DC50 [1, 5] [nM] | 293T.144 RET (658-1114) 6.0 hours (IP) [nM] ([2]; HiBiT-Degradation) | DC50 [2, 6] [nM] | Emax [2, 7] [%] | HiBiT-Degradation 293T.165 RET(KD: 658-1114 G810R) 6.0 hours (IP) [nM] ([1]; RET G810R) | DC50 ([1]; RET G810R, read-out: HiBiT-Degradation 293T.165 RET(KD: 658-1114 G810R) 6.0 hours (DC50)) [nM] | Emax ([1]; RET G810R, read-out: HiBiT-Degradation 293T.165 RET(KD: 658-1114 G810R) 6.0 hours (Emax)) [%] | HiBiT-Degradation 293T.144 RET (658-1114) 6.0 hours (IP) [nM] ([2]; RET wild-type) | DC50 ([2]; RET wild-type, read-out: HiBiT-Degradation 293T.144 RET (658-1114) 6.0 hours (DC50)) [nM] | Emax ([2]; RET wild-type, read-out: HiBiT-Degradation 293T.144 RET (658-1114) 6.0 hours (Emax)) [%] | 293T.165 RET(KD: 658-1114 G810R) 6.0 hours (IP) [nM] [1] | 293T.144 RET (658-1114) 6.0 hours (IP) [nM] [2] | Emax [2, 8] [%] | DC50 [2, 9] [nM]
1 | CN(C)c1ccc(-c2cc(-c3cnn([C@H]4CC[C@@H](CCN5CCC(c6ccc(NC7CCC(=O)NC7=O)cc6)CC5)CC4)c3)cn3ncc(C#N)c23)cn1 (stereo partly shown) [Compound 43, 4-[6-(dimethylamino)-3-pyridyl]-6-[1-[(1s,4s)-4-[2-[4-[4-[(2,6-dioxo-3-piperidyl)amino]phenyl]-1-piperidyl]ethyl]cyclohexyl]pyrazol-4-yl]pyrazolo[1,5-a]pyridine-3-carbonitrile] | < 50 | < 100 | +++ (<50% = +++) | ++++ (< 50 nM = ++++) | < 100 | ++++ (< 50 nM = ++++) | < 50 | < 30 | – | – | – | – | – | – | – | – | – | –
2 | N#Cc1cnn2cc(-c3cnn(C4CCN(C(=O)NC5CCN(c6ccc(NC7CCC(=O)NC7=O)cc6F)CC5)CC4)c3)cc(-c3ccc(N4CCN(Cc5ccccn5)CC4)nc3)c12 (stereo not shown) [Compound 77, 4-[4-[3-cyano-4-[6-[4-(2-pyridylmethyl)piperazin-1-yl]-3-pyridyl]pyrazolo[1,5-a]pyridin-6-yl]pyrazol-1-yl]-N-[1-[4-[(2,6-dioxo-3-piperidyl)amino]-2-fluoro-phenyl]-4-piperidyl]piperidine-1-carboxamide] | < 50 | < 100 | – | – | – | – | – | – | ++++ (< 50 nM = ++++) | < 100 | < 50 | ++++ (< 50 nM = ++++) | < 50 | < 30 | – | – | – | –
3 | C[C@H](c1ccccn1)N1CCN(c2ccc(-c3nc(-c4cnn(C5CCN(C(=O)CC6(O)CCN(c7ccc(NC8CCC(=O)NC8=O)cc7F)CC6)CC5)c4)cn4ncc(C#N)c34)cn2)CC1 (stereo partly drawn) [Compound 1, 6-[1-[1-[2-[1-[4-[(2,6-dioxo-3-piperidyl)amino]-2-fluoro-phenyl]-4-hydroxy-4-piperidyl]acetyl]-4-piperidyl]pyrazol-4-yl]-4-[6-[4-[(1R)-1-(2-pyridyl)ethyl]piperazin-1-yl]-3-pyridyl]pyrazolo[1,5-a]pyrazine-3-carbonitrile] | < 50 | < 50 | +++ (<50% = +++) | ++++ (< 50 nM = ++++) | < 50 | ++++ (< 50 nM = ++++) | < 50 | < 30 | – | – | – | – | – | – | – | – | – | –
4 | N#Cc1cnn2cc(-c3cnn(C4CCN(C(=O)CC5(O)CCN(c6ccc(NC7CCC(=O)NC7=O)cc6F)CC5)CC4)c3)nc(-c3ccc(N4CCC(c5ncccn5)CC4)nc3)c12 (stereo not shown) [Compound 36, 6-[1-[1-[2-[1-[4-[(2,6-dioxo-3-piperidyl)amino]-2-fluoro-phenyl]-4-hydroxy-4-piperidyl]acetyl]-4-piperidyl]pyrazol-4-yl]-4-[6-(4-pyrimidin-2-yl-1-piperidyl)-3-pyridyl]pyrazolo[1,5-a]pyrazine-3-carbonitrile] | < 30 | < 50 | ++++ (< 30% = ++++) | ++++ (< 50 nM = ++++) | < 50 | ++++ (< 50 nM = ++++) | < 50 | < 30 | – | – | – | – | – | – | – | – | – | –
5 | CCC1(C(=O)NC(C)(C)C)CCN(c2ccc(-c3nc(-c4cnn(C5CCN(C(=O)CC6(O)CCN(c7ccc(NC8CCC(=O)NC8=O)cc7F)CC6)CC5)c4)cn4ncc(C#N)c34)cn2)CC1 (stereo not shown) [Compound 103, N-tert-butyl-1-[5-[3-cyano-6-[1-[1-[2-[1-[4-[(2,6-dioxo-3-piperidyl)amino]-2-fluoro-phenyl]-4-hydroxy-4-piperidyl]acetyl]-4-piperidyl]pyrazol-4-yl]pyrazolo[1,5-a]pyrazin-4-yl]-2-pyridyl]-4-ethyl-piperidine-4-carboxamide] | < 30 | < 50 | – | – | – | – | – | – | – | – | – | – | – | – | ++++ (<50 nM = ++++) | ++++ (<50 nM = ++++) | < 30 | < 50
6 | N#Cc1cnn2cc(-c3cnn([C@H]4CC[C@H](N5CCN(c6c(F)cc(NC7CCC(=O)NC7=O)cc6F)CC5)CC4)c3)nc(-c3ccc(N4CC5CC(C4)N5CC4CCC(F)(F)CC4)nc3)c12 (stereo partly shown) [Compound 214, 4-[6-[6-[(4,4-difluorocyclohexyl)methyl]-3,6-diazabicyclo[3.1.1]heptan-3-yl]-3-pyridyl]-6-[1-[4-[4-[4-[(2,6-dioxo-3-piperidyl)amino]-2,6-difluoro-phenyl]piperazin-1-yl]cyclohexyl]pyrazol-4-yl]pyrazolo[1,5-a]pyrazine-3-carbonitrile] | < 30 | < 100 | – | – | – | – | – | – | – | – | – | – | – | – | +++ (<100 nM = +++) | ++++ (<50 nM = ++++) | < 30 | < 50
7 | Cn1nc(N2CCC(=O)NC2=O)c2ccc(C3CCN(CC(=O)N4CCC(n5cc(-c6cc(-c7ccc(N8CCN(Cc9ccccn9)CC8)nc7)c7c(C#N)cnn7c6)cn5)CC4)CC3)cc21 [Compound 13, 6-(1-(1-(2-(4-(3-(2,4-dioxotetrahydropyrimidin-1(2H)-yl)-1-methyl-1H-indazol-6-yl)piperidin-1-yl)acetyl)piperidin-4-yl)-1H-pyrazol-4-yl)-4-(6-(4-(pyridin-2-ylmethyl)piperazin-1-yl)pyridin-3-yl)pyrazolo[1,5-a]pyridine-3-carbonitrile] | < 50 | < 100 | +++ (<50% = +++) | ++++ (< 50 nM = ++++) | < 100 | ++++ (< 50 nM = ++++) | < 50 | < 30 | – | – | – | – | – | – | – | – | – | –
8 | CCOc1ccc(CN2[C@@H]3COC[C@H]2CN(c2ccc(-c4nc(-c5cnn([C@H]6CC[C@H](N7CCN(c8c(F)cc(NC9CCC(=O)NC9=O)cc8F)CC7)CC6)c5)cn5ncc(C#N)c45)cn2)C3)cn1 (mixture of isomers) [Compound 212, 6-[1-[4-[4-[4-[(2,6-dioxo-3-piperidyl)amino]-2,6-difluoro-phenyl]piperazin-1-yl]cyclohexyl]pyrazol-4-yl]-4-[6-[rac-(1R,5S)-9-[(6-ethoxy-3-pyridyl)methyl]-3-oxa-7,9-diazabicyclo[3.3.1]nonan-7-yl]-3-pyridyl]pyrazolo[1,5-a]pyrazine-3-carbonitrile] | < 30 | < 100 | – | – | – | – | – | – | – | – | – | – | – | – | +++ (<100 nM = +++) | ++++ (<50 nM = ++++) | < 30 | < 50
9 | CCC1(C(=O)NC(C)C)CCN(c2ccc(-c3nc(-c4cnn(C5CCN(CC6(O)CCN(c7ccc(NC8CCC(=O)NC8=O)cc7F)CC6)CC5)c4)cn4ncc(C#N)c34)cn2)CC1 (stereo not shown) [Compound 118, 1-(5-(3-cyano-6-(1-(1-((1-(4-((2,6-dioxopiperidin-3-yl)amino)-2-fluorophenyl)-4-hydroxypiperidin-4-yl)methyl)piperidin-4-yl)-1H-pyrazol-4-yl)pyrazolo[1,5-a]pyrazin-4-yl)pyridin-2-yl)-4-ethyl-N-isopropylpiperidine-4-carboxamide] | < 30 | < 50 | – | – | – | – | – | – | – | – | – | – | – | – | ++++ (<50 nM = ++++) | ++++ (<50 nM = ++++) | < 30 | < 50
